In patent publication US20140105921A1, “Prodrugs of Peptide Epoxy Ketone Protease Inhibitors” (Onyx Therapeutics, Inc., priority 2012, published 2014):
Like-named read-outs stand apart in the source and are kept apart here. Values belong to the molecule of their own block, whether it stands above or below them.

How the values were obtained:
[1] = molecular target: c20s (Homo sapiens, UniProt P20618+P28074); experiment: Purified PI, IC50 against c20s; format: biochemical
[2] = molecular target: i20s (Homo sapiens, UniProt P20618+P28062); experiment: Purified PI, IC50 against i20s; format: biochemical
[3] = Buffer Conversion Rates of Prodrugs to Compound B; format: physicochemical
[4] = Conversion of Prodrugs by Human Liver S9; format: in vitro ADME
[5] = In vivo mouse PK of Compound A and PEG prodrugs; conditions: for [Cmpd A]: BLOQ = below level of quantitation
[6] = Table G, read-out: IC50 Slope c20s
[7] = Table G, read-out: IC50 Slope i20s
[8] = Table G, value marked *: did not converge, read-out: IC50 Slope i20s
[9] = Table G, value marked *: did not converge, read-out: IC50 Slope c20s
[10] = IC50 60 minute point c20s, Table H, 60 minute point
[11] = Table H, read-out: IC50 Slope c20s
[12] = IC50 60 minute point i20s, Table H, 60 minute point
[13] = Table H, read-out: IC50 Slope i20s

- IC50 [1, 6]: 8.91 nM
- IC50 [2, 7]: 49.8 nM
SMILES: CC(C)C[C@H](NC(=O)[C@H](CCc1ccccc1)NC(=O)C[N+]1(COC(=O)C(C)(C)C)CCOCC1)C(=O)N[C@@H](Cc1ccccc1)C(=O)N[C@@H](CC(C)C)C(=O)[C@@]1(C)CO1

- IC50 [1, 6]: 678 nM
- IC50 [2, 8]: 2180 nM
SMILES: CC(=O)N/N=C(/[C@H](CC(C)C)NC(=O)[C@H](Cc1ccccc1)NC(=O)[C@H](CC(C)C)NC(=O)[C@H](CCc1ccccc1)NC(=O)CN1CCOCC1)[C@@]1(C)CO1

- IC50 [2, 8]: 3240 nM
SMILES: COCCOCCOCCOCCC(=O)N/N=C(/[C@H](CC(C)C)NC(=O)[C@H](Cc1ccccc1)NC(=O)[C@H](CC(C)C)NC(=O)[C@H](CCc1ccccc1)NC(=O)CN1CCOCC1)[C@@]1(C)CO1

SMILES: CC(C)C[C@H](NC(=O)[C@H](CCc1ccccc1)NC(=O)CN1CCOCC1)C(=O)N[C@@H](Cc1ccccc1)C(=O)N[C@@H](CC(C)C)/C(=N/O)[C@@]1(C)CO1
- IC50 [1, 9]: 279 nM
- IC50 [2, 8]: 2290 nM

SMILES: CO/N=C(/[C@H](CC(C)C)NC(=O)[C@H](Cc1ccccc1)NC(=O)[C@H](CC(C)C)NC(=O)[C@H](CCc1ccccc1)NC(=O)CN1CCOCC1)[C@@]1(C)CO1
- IC50 [1, 9]: 2610 nM

SMILES: CC(C)C[C@H](NC(=O)[C@H](CCc1ccccc1)NC(=O)CN1CCOCC1)C(=O)N[C@@H](Cc1ccccc1)C(=O)N[C@@H](CC(C)C)/C(=N/OCc1ccccc1)[C@@]1(C)CO1
- IC50 [1, 6]: 539 nM
- IC50 [2, 7]: 2180 nM

- IC50 [1, 6]: 37.7 nM
- IC50 [2, 7]: 98.7 nM
SMILES: CC(C)C[C@H](NC(=O)[C@H](CCc1ccccc1)NC(=O)CN1CCOCC1)C(=O)N[C@@H](Cc1ccccc1)C(=O)N[C@@H](CC(C)C)C(=O)[C@](C)(O)COS(C)(=O)=O

- IC50 [1, 6]: 73.7 nM
- IC50 [2, 7]: 316 nM
SMILES: Cc1ccc(S(=O)(=O)OC[C@@](C)(O)C(=O)[C@H](CC(C)C)NC(=O)[C@H](Cc2ccccc2)NC(=O)[C@H](CC(C)C)NC(=O)[C@H](CCc2ccccc2)NC(=O)CN2CCOCC2)cc1

- IC50 [1, 6]: 615 nM
- IC50 [2, 7]: 143 nM
SMILES: CC(C)C[C@H](NC(=O)[C@H](CCc1ccccc1)NC(=O)CN1CCOCC1)C(=O)N[C@@H](Cc1ccccc1)C(=O)N[C@@H](CC(C)C)C(=O)[C@](C)(O)CCl

- IC50 [1, 9]: 2470 nM
- IC50 [2, 8]: 2820 nM
SMILES: CC(C)C[C@H](NC(=O)[C@H](CCc1ccccc1)NC(=O)CN1CCOCC1)C(=O)N[C@@H](Cc1ccccc1)C(=O)N[C@@H](CC(C)C)C(=O)[C@](C)(O)COn1nnc2ccccc21

- IC50 [1, 9]: 2440 nM
- IC50 [2, 7]: 8190 nM
SMILES: CC(=O)OC[C@@](C)(O)C(=O)[C@H](CC(C)C)NC(=O)[C@H](Cc1ccccc1)NC(=O)[C@H](CC(C)C)NC(=O)[C@H](CCc1ccccc1)NC(=O)CN1CCOCC1

- IC50 [2, 7]: 660 nM
SMILES: CC(C)C[C@H](NC(=O)[C@H](CCc1ccccc1)NC(=O)CN1CCOCC1)C(=O)N[C@@H](Cc1ccccc1)C(=O)N[C@@H](CC(C)C)C(=O)[C@](C)(O)COC(=O)c1c(Cl)cccc1Cl

SMILES: CC(C)C[C@H](NC(=O)[C@H](CCc1ccccc1)NC(=O)CN1CCOCC1)C(=O)N[C@@H](Cc1ccccc1)C(=O)N[C@@H](CC(C)C)C(=O)[C@](C)(O)COP(=O)(c1ccccc1)c1ccccc1
- IC50 [1, 6]: 2670 nM
- IC50 [2, 8]: 2550 nM

- IC50 ([1]; IC50 60 minute point c20s, Table H, 60 minute point, value marked * (Table G: did not converge)): 2560 nM
- IC50 60 minute point i20s ([2]; Table H, 60 minute point): inactive
SMILES: COC[C@H](NC(=O)c1cnc(C)s1)C(=O)N[C@@H](COC)C(=O)N[C@@H](Cc1ccccc1)/C(=N/OC)[C@@]1(C)CO1

- IC50 [1, 10]: 459 nM
- IC50 [1, 11]: 103 nM
- IC50 [2, 12]: 614 nM
- IC50 [2, 13]: 179 nM
SMILES: COC[C@H](NC(=O)c1cnc(C)s1)C(=O)N[C@@H](COC)C(=O)N[C@@H](Cc1ccccc1)C(=O)[C@](C)(O)COS(C)(=O)=O

- IC50 [1, 10]: 748 nM
- IC50 [1, 11]: 141 nM
- IC50 [2, 12]: 637 nM
- IC50 [2, 13]: 252 nM
SMILES: COC[C@H](NC(=O)c1cnc(C)s1)C(=O)N[C@@H](COC)C(=O)N[C@@H](Cc1ccccc1)C(=O)[C@](C)(O)COS(=O)(=O)c1ccc(C)cc1

- IC50 60 minute point c20s ([1]; Table H, 60 minute point): inactive
- IC50 60 minute point i20s ([2]; Table H, 60 minute point): inactive
SMILES: COC[C@H](NC(=O)c1cnc(C)s1)C(=O)N[C@@H](COC)C(=O)N[C@@H](Cc1ccccc1)C(=O)[C@](C)(O)COC(C)=O

- IC50 60 minute point c20s ([1]; Table H, 60 minute point): inactive
- IC50 60 minute point i20s ([2]; Table H, 60 minute point): inactive
SMILES: COC[C@H](NC(=O)c1cnc(C)s1)C(=O)N[C@@H](COC)C(=O)N[C@@H](Cc1ccccc1)C(=O)[C@](C)(O)COC(=O)c1c(Cl)cccc1Cl

- IC50 60 minute point c20s ([1]; Table H, 60 minute point): inactive
- IC50 60 minute point i20s ([2]; Table H, 60 minute point): inactive
SMILES: COC[C@H](NC(=O)c1cnc(C)s1)C(=O)N[C@@H](COC)C(=O)N[C@@H](Cc1ccccc1)C(=O)[C@](C)(O)COP(=O)(c1ccccc1)c1ccccc1

- Buffer pH = 7.4 % Conversion @ 1 hour [3]: 24%
SMILES: COC[C@H](NC(=O)c1cnc(C)s1)C(=O)N[C@@H](COC)C(=O)N[C@@H](Cc1ccccc1)C(=O)[C@](C)(O)CI [20-1]

- Buffer pH = 7.4 % Conversion @ 1 hour [3]: 0%
SMILES: COC[C@H](NC(=O)c1cnc(C)s1)C(=O)N[C@@H](COC)C(=O)N[C@@H](Cc1ccccc1)C(=O)[C@](C)(O)CCl [20-2]

- Buffer pH = 7.4 % Conversion @ 1 hour [3]: 23%
SMILES: COC[C@H](NC(=O)c1cnc(C)s1)C(=O)N[C@@H](COC)C(=O)N[C@@H](Cc1ccccc1)C(=O)[C@](C)(O)CBr [20-3]

- Buffer pH = 7.4 % Conversion @ 1 hour [3]: 5.7%
SMILES: COC[C@H](NC(=O)c1cnc(C)s1)C(=O)N[C@@H](COC)C(=O)N[C@@H](Cc1ccccc1)C(=O)[C@](C)(O)COS(=O)(=O)CC(F)F [20-6]

- Buffer pH = 7.4 % Conversion @ 1 hour [3]: 4.2%
SMILES: CCCCS(=O)(=O)OC[C@@](C)(O)C(=O)[C@H](Cc1ccccc1)NC(=O)[C@H](COC)NC(=O)[C@H](COC)NC(=O)c1cnc(C)s1 [20-7]

- Human Liver S9 % Conversion @ 1 hour [4]: 3%
SMILES: COC[C@H](NC(=O)c1cnc(C)s1)C(=O)N[C@@H](COC)C(=O)N[C@@H](Cc1ccccc1)C(=O)[C@@](C)(CI)OC(=O)CCCCSC(C)=O [20-10]

- Human Liver S9 % Conversion @ 1 hour [4]: 11%
SMILES: COC[C@H](NC(=O)c1cnc(C)s1)C(=O)N[C@@H](COC)C(=O)N[C@@H](Cc1ccccc1)C(=O)[C@@](C)(CI)OC(=O)CCCOC(C)=O [20-13]

- Human Liver S9 % Conversion @ 1 hour [4]: 30%
SMILES: COC[C@H](NC(=O)c1cnc(C)s1)C(=O)N[C@@H](COC)C(=O)N[C@@H](Cc1ccccc1)C(=O)[C@@](C)(CI)OC(=O)OCc1oc(=O)oc1C [20-15]

- Human Liver S9 % Conversion @ 1 hour [4]: 24%
SMILES: CCOC(=O)C(=O)O[C@](C)(CI)C(=O)[C@H](Cc1ccccc1)NC(=O)[C@H](COC)NC(=O)[C@H](COC)NC(=O)c1cnc(C)s1 [20-16]

- Human Liver S9 % Conversion @ 1 hour [4]: 1%
SMILES: CCOC(=O)CCC(=O)O[C@](C)(CI)C(=O)[C@H](Cc1ccccc1)NC(=O)[C@H](COC)NC(=O)[C@H](COC)NC(=O)c1cnc(C)s1 [20-17]

- Human Liver S9 % Conversion @ 1 hour [4]: 7%
SMILES: COC[C@H](NC(=O)c1cnc(C)s1)C(=O)N[C@@H](COC)C(=O)N[C@@H](Cc1ccccc1)C(=O)[C@@](C)(CI)OC(=O)COc1ccccc1 [20-19]

- Human Liver S9 % Conversion @ 1 hour [4]: 28%
SMILES: COC[C@H](NC(=O)c1cnc(C)s1)C(=O)N[C@@H](COC)C(=O)N[C@@H](Cc1ccccc1)C(=O)[C@@](C)(CI)OC(=O)OCc1ccc(OC(C)=O)cc1 [20-22]

- Human Liver S9 % Conversion @ 1 hour [4]: 22%
SMILES: COC[C@H](NC(=O)c1cnc(C)s1)C(=O)N[C@@H](COC)C(=O)N[C@@H](Cc1ccccc1)C(=O)[C@@](C)(CI)OC(=O)CCl [20-23]

- Human Liver S9 % Conversion @ 1 hour [4]: 29%
SMILES: COC[C@H](NC(=O)c1cnc(C)s1)C(=O)N[C@@H](COC)C(=O)N[C@@H](Cc1ccccc1)C(=O)[C@@](C)(CI)OC=O [20-24]

- Human Liver S9 % Conversion @ 1 hour [4]: 14%
SMILES: CCOC(=O)O[C@](C)(CI)C(=O)[C@H](Cc1ccccc1)NC(=O)[C@H](COC)NC(=O)[C@H](COC)NC(=O)c1cnc(C)s1 [20-25]

- Human Liver S9 % Conversion @ 1 hour [4]: 32%
SMILES: COC[C@H](NC(=O)c1cnc(C)s1)C(=O)N[C@@H](COC)C(=O)N[C@@H](Cc1ccccc1)C(=O)[C@@](C)(CI)OC(=O)Oc1ccccc1 [20-26]

- [Cmpd A] ([5]; Time 4 hr): BLOQ
- [Cmpd A] ([5]; Time 6 hr): BLOQ
- [Cmpd A] ([5]; Time 24 hr): BLOQ
- concentration at 1 hr ([5]; plasma, Time 1 hr, read-out: [Cmpd A]): 8 nM
SMILES: CC(C)C[C@H](NC(=O)[C@H](CCc1ccccc1)NC(=O)CN1CCOCC1)C(=O)N[C@@H](Cc1ccccc1)C(=O)N[C@@H](CC(C)C)C(=O)[C@@]1(C)CO1 [Cmpd A, (S)-4-methyl-N—((S)-1-(((S)-4-methyl-1-((R)-2-methyloxiran-2-yl)-1-oxopentan-2-yl)amino)-1-oxo-3-phenylpropan-2-yl)-2-((S)-2-(2-morpholinoacetamido)-4-phenylbutanamido)pentanamide]

- Buffer pH = 7.4 % Conversion @ 1 hour [3]: 9.8%
SMILES: COC[C@H](NC(=O)c1cnc(C)s1)C(=O)N[C@@H](COC)C(=O)N[C@@H](Cc1ccccc1)C(=O)[C@](C)(O)COS(=O)(=O)C1CCOCC1 [compound 22]

- Buffer pH = 7.4 % Conversion @ 1 hour [3]: 9.6%
SMILES: COC[C@H](NC(=O)c1cnc(C)s1)C(=O)N[C@@H](COC)C(=O)N[C@@H](Cc1ccccc1)C(=O)[C@](C)(O)COS(=O)(=O)Cc1ccccc1 [compound 23]

- IC50 [1, 11]: 193 nM
- IC50 ([2]; Table H, value marked * (Table G: did not converge), read-out: IC50 Slope i20s): 278 nM
SMILES: COC[C@H](NC(=O)c1cnc(C)s1)C(=O)N[C@@H](COC)C(=O)N[C@@H](Cc1ccccc1)C(=O)[C@](C)(O)COS(=O)(=O)C1CCOCC1 [drawing 373]

- IC50 [1, 11]: 95.4 nM
SMILES: COC[C@H](NC(=O)c1cnc(C)s1)C(=O)N[C@@H](COC)C(=O)N[C@@H](Cc1ccccc1)C(=O)[C@](C)(O)COS(=O)(=O)Cc1ccccc1 [drawing 374]
